Calls of active or inactive are those of the source.
Experiments:
[1] = luciferase reporter signal suppression in cells – H4 neuroglioma cells, luminescence, dose response (AID 1990); type: functional, cell-based
[2] = alpha-synuclein stem-loop luciferase translation blockers – H4 neuroglioma cells, luminescence, confirmation (AID 1988); type: functional, cell-based
[3] = mRNA 3' processing disruption, beta-gal signal increase – luminescence, S. cerevisiae SKY197-pL101, dose response (AID 2525); type: functional, cell-based
[4] = Luminescence Cell-Based Dose Response HTS to Identify Inhibitors of 5'UTR Stem-Loop Driven Prion Protein mRNA Translation in H4 Neuroglioblastoma Cells. [Related pubchem assays: 1827 (Project Summary), 1813 (Primary HTS)]; type: functional
[5] = Luminescence Cell-Based Dose Confirmation HTS to Identify Inhibitors of Polyadenylation.; type: functional
[6] = biological target: T1, Mannose-6-phosphate isomerase (Homo sapiens, UniProt P34949); experiment: MPI enzyme activity inhibition – biochemical, fluorescence intensity, coupled assay, primary screen (AID 1209)
T1 sequence (P34949 whole entry): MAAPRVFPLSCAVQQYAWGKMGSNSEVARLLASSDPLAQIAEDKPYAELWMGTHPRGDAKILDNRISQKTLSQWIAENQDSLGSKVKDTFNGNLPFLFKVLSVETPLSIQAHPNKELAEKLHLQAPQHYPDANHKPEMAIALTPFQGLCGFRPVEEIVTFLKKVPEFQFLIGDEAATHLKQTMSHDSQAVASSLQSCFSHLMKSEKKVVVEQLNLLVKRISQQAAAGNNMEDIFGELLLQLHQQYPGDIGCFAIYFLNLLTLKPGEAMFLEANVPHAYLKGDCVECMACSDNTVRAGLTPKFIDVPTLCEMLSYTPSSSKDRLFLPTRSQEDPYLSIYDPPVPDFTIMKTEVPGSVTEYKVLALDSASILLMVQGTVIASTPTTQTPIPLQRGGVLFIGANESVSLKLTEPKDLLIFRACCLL

Cytochrome P450 3A4 = Cytochrome P450 3A4 (Homo sapiens, UniProt P08684);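 further: CYP3A4 tested as one member of a cytochrome P450 panel screen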
[7] = biological target: T1, Mannose-6-phosphate isomerase; experiment: MPI inhibition at elevated mannose 6-phosphate – biochemical, fluorescence intensity, high mannose 6-phosphate, primary screen (AID 1220)
Cytochrome P450 1A2 = biological target: T2, Cytochrome P450 1A2 (Homo sapiens, UniProt P05177);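 further: PubChem cytochrome P450 panel assay, CYP1A2 panel member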
T2 sequence (P05177 whole entry): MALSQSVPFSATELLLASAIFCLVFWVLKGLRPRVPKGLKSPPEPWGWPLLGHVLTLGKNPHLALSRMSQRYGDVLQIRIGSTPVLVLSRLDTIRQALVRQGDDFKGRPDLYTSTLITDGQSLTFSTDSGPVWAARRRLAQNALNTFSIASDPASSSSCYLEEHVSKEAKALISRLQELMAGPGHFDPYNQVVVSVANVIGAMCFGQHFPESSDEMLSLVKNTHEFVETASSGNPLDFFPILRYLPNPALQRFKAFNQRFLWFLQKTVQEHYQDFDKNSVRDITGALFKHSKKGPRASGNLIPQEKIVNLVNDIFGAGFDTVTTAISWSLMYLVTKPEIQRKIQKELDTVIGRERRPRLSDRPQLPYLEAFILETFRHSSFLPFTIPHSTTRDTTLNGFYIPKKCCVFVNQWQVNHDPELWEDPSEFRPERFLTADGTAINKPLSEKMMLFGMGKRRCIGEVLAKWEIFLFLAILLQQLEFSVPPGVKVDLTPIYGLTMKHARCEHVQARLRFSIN

Large T antigen = Large T antigen (Simian virus 40, UniProt P03070); type: functional, Betapolyomavirus macacae;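 further: Confirmatory-stage PubChem screen for compounds that inhibit SV40 T antigen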
[8] = biological target: Endoplasmic reticulum aminopeptidase 1 (Homo sapiens, UniProt Q9NZ08); experiment: inhibition of human ERAP1 enzyme activity – biochemical, cherry-pick, set 2, plate reader, dose response (AID 743314)
[9] = biological target: T3, Mothers against decapentaplegic homolog 3 (Homo sapiens, UniProt P84022); experiment: inhibitors of SMAD-driven TGF-beta signaling – dose response (AID 715); type: functional
[10] = biological target: 26S proteasome non-ATPase regulatory subunit 14 (Homo sapiens, UniProt O00487); experiment: inhibition of proteasome subunit RPN11 – biochemical, fluorescence polarization, uHTS hits, confirmation (AID 602368); type: functional
Prothrombin = Prothrombin (Bos taurus, UniProt P00735); experiment: thrombin protease inhibitors – biochemical, fluorescence polarization, uHTS hits, dose response (AID 602369); type: functional
[11] = biological target: Protein-tyrosine kinase 2-beta (Homo sapiens, UniProt Q14289);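 further: potency of inhibitors of PYK2 kinase phosphorylation of poly-GT substrate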
[12] = biological target: 72 kDa type IV collagenase (Homo sapiens, UniProt P08253); experiment: Dose Response validation of uHTS RPN11 inhibitor hits using a MMP-2 Fluorescence assay.; type: functional
[13] = biological target: T3, Mothers against decapentaplegic homolog 3; experiment: blockers of Smad3 complex formation in lysate – cell lysate, secondary confirmation, chemiluminescent ELISA, HEK293 lysate, dose response (AID 1058); type: functional
[14] = biological target: Neuropeptide Y receptor type 2 (Homo sapiens, UniProt P49146); type: functional, cell-based;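 further: HEK293 cells expressing the receptor and a CNG channel; stimulus was NPY near EC95 followed by isoproterenol to raise cAMP; antagonist potency measured as restoring cAMP signal that NPY suppresses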
[15] = biological target: Neuropeptide Y receptor type 1 (Homo sapiens, UniProt P25929); type: functional;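 further: HEK293 cells with a CNG channel challenged with NPY then isoproterenol; potency as antagonist that reverses NPY suppression of cAMP signal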
Neuropeptide Y receptor type 1, sequence (P25929 whole entry): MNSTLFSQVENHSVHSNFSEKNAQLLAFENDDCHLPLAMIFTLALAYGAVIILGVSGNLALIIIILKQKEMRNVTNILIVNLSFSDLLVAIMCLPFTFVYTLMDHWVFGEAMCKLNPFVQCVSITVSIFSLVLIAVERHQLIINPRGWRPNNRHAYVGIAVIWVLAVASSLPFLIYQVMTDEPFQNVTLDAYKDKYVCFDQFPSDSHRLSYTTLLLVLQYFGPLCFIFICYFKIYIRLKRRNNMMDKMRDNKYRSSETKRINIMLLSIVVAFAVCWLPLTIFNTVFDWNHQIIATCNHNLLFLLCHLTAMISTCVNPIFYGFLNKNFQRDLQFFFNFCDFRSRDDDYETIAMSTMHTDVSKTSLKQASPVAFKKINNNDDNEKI

T3 sequence (P84022 whole entry): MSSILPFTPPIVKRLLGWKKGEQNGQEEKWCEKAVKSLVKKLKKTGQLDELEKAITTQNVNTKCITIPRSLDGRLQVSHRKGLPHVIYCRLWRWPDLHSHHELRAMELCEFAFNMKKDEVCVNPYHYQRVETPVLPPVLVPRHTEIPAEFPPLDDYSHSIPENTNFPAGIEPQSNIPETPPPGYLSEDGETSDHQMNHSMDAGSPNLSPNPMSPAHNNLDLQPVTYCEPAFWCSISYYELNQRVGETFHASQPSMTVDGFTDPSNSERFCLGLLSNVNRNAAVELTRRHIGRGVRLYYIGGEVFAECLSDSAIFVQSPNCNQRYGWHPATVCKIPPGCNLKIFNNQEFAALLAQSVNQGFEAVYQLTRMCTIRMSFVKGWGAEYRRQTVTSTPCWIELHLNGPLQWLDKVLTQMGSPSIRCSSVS
Protein-tyrosine kinase 2-beta, sequence (Q14289 whole entry): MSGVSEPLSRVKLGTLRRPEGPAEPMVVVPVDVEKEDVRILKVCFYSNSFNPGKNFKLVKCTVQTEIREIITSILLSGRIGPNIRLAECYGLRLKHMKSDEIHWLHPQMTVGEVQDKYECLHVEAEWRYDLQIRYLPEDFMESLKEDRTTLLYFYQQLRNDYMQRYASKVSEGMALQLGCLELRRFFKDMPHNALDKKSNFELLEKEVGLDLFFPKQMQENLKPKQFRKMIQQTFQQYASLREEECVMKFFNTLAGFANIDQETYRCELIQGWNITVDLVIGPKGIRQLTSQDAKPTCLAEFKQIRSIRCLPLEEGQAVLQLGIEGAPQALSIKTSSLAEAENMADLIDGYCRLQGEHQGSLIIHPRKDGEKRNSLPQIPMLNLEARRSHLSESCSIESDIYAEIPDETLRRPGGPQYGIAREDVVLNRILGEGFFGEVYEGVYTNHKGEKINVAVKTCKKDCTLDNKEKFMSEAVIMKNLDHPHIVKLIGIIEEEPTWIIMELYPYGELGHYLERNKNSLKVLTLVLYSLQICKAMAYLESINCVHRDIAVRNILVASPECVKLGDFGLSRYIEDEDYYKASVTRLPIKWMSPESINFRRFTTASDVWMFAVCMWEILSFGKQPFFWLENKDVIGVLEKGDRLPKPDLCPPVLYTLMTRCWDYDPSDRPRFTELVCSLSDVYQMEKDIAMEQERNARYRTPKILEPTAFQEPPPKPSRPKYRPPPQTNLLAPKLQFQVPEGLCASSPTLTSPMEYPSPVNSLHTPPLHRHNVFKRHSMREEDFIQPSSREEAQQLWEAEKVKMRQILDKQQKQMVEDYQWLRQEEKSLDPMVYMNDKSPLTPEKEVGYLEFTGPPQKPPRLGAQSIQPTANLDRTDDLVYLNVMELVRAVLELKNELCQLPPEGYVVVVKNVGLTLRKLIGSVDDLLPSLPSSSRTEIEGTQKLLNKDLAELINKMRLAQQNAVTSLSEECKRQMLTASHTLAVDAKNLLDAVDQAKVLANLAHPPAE
Large T antigen, sequence (P03070 whole entry): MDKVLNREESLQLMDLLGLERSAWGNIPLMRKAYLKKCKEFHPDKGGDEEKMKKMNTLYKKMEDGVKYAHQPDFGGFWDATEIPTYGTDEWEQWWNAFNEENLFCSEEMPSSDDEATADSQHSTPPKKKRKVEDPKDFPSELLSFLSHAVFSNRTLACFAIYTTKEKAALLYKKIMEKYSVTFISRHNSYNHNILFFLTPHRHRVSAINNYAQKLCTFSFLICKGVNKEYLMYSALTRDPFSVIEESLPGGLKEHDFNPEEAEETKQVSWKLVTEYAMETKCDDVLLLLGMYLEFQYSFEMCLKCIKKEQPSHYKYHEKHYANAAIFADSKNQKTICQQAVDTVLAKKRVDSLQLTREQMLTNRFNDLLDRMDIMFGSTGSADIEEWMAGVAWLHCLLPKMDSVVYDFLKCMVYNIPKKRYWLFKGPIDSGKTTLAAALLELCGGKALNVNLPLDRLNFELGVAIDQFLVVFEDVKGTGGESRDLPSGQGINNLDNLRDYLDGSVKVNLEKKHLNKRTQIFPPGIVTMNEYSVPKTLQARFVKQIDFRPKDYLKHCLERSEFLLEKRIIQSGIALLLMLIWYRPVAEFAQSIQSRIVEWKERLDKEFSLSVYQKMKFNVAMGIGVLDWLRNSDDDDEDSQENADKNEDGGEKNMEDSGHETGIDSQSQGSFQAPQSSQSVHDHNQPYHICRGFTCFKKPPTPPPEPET
Neuropeptide Y receptor type 2, sequence (P49146 whole entry): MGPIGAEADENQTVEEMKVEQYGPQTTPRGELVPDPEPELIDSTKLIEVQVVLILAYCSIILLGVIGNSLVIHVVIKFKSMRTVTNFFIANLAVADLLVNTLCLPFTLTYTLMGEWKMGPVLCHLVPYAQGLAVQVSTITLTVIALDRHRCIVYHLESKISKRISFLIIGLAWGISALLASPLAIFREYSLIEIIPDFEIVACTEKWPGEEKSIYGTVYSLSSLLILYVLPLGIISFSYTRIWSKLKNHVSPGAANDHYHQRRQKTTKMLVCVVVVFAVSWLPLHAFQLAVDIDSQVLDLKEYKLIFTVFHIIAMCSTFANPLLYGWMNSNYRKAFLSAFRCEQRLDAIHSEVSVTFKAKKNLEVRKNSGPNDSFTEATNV
72 kDa type IV collagenase, sequence (P08253 whole entry): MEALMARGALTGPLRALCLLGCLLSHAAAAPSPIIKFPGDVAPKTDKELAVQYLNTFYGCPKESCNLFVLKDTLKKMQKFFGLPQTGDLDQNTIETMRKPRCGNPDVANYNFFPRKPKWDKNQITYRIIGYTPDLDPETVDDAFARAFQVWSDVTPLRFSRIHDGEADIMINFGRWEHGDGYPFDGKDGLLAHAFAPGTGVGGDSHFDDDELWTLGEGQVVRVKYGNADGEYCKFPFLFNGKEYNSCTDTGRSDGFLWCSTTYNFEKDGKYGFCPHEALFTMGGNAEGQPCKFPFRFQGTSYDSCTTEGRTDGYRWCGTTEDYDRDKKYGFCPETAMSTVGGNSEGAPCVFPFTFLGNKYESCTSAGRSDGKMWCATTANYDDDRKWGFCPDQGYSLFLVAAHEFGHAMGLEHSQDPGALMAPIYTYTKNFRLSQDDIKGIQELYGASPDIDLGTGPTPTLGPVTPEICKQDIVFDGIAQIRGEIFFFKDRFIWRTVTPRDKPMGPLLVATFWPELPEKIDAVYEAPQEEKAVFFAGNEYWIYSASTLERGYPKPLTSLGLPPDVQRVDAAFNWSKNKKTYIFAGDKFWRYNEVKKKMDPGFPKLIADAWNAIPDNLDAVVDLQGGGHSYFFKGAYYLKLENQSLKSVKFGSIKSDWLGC
26S proteasome non-ATPase regulatory subunit 14, sequence (O00487 whole entry): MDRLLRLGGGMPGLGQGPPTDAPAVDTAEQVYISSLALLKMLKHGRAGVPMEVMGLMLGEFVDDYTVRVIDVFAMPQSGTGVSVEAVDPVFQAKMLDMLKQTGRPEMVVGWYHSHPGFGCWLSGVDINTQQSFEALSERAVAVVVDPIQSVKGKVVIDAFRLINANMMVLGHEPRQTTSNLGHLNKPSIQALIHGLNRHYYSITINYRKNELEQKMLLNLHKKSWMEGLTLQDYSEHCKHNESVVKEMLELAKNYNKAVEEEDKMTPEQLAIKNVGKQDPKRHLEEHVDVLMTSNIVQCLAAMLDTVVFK
Endoplasmic reticulum aminopeptidase 1, sequence (Q9NZ08 whole entry): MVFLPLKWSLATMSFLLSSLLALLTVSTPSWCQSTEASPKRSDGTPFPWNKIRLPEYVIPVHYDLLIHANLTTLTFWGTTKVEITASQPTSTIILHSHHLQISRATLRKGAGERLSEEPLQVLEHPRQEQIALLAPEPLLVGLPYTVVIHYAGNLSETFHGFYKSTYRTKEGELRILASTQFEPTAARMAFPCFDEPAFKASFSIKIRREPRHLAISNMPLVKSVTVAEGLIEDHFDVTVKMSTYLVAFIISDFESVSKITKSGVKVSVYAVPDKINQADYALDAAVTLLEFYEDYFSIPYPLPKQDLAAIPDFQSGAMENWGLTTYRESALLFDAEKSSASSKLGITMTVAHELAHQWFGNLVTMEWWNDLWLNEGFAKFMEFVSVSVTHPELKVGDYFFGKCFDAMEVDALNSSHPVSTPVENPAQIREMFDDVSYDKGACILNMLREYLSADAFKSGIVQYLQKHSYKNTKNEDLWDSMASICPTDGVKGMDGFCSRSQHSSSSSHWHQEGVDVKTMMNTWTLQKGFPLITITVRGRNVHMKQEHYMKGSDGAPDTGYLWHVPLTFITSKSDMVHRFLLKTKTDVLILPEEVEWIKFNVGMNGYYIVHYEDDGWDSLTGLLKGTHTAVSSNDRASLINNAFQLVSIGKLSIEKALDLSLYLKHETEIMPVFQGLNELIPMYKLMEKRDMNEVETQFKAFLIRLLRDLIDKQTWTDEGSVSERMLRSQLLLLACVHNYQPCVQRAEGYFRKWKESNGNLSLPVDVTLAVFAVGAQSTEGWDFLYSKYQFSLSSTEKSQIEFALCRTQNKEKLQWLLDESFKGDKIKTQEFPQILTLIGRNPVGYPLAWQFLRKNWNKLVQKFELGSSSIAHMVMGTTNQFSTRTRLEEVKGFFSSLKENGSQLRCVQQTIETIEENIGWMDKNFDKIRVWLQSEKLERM

Compound: O=C(Oc1c(-c2ccccc2)c(=O)n2c3c(cccc13)CC2)c1cccc([N+](=O)[O-])c1
- EC50 [1]: 12 µM (active)
- EC50 [2]: 13 µM (active)
- EC50 [3]: 3.89 µM (active)
- EC50 [4]: 12.3 µM (active)
- EC50 [5]: 9.78 µM (active)

Compound: O=c1ccc2cc(O)c(O)cc2o1 [ESCULETIN]
- IC50 [6]: > 50 µM (not active)
- AC50 (Cytochrome P450 3A4): 12.6 µM (inconclusive)
- IC50 [7]: > 50 µM (not active)
- AC50 (Cytochrome P450 1A2): 15.8 µM (inconclusive)
- IC50 (Large T antigen): 25.9 µM (active)
- AC50 [8]: 9.72 µM (active)

Compound: O=C(NCCCN1CCCCCC1)c1ccc(CS(=O)(=O)Cc2ccccc2F)o1
- IC50 [9]: 4.1 µM (active)
- IC50 [10]: 7.28 µM (active)
- IC50 (Prothrombin): 68.8 µM (active)
- IC50 [11]: 13.1 µM (not active)
- IC50 [12]: > 100 µM (inactive)

Compound: Oc1cc2c(cc1C(c1ccc3c(c1)OCO3)N1CCCCC1)OCO2 (centres undefined)
- IC50 [13]: > 40 µM (not active)

Compound: COc1ccc(Cn2c(/C=C/c3ccccc3)nc3ccccc32)cc1
- IC50 [14]: 5.51 µM (active)
- IC50 [15]: 4.02 µM (active)

— ChEMBL document CHEMBL1201862, “PubChem BioAssay data set” (2004)
